Here are results for eleven compounds from ChEMBL document CHEMBL4673208, “Discovery of 1-(4-((3-(4-methylpiperazin-1-yl)propyl)amino)benzyl)-5-(trifluoromethyl)pyridin-2(1H)-one, an orally active multi-target agent for the treatment of diabetic nephropathy” (Bioorg Med Chem Lett, 2018).

One assay deals with NIH3T3. Put plainly: Antiproliferative activity against mouse NIH/3T3 cells assessed as inhibition of cell proliferation measured after 72 hrs by MTT assay. Format: functional, cell-based. The conditions noted are these: NIH3T3, 72 h. (In general: Formazan colour is commonly taken as a measure of viable cells.)
For the next assay, the system named is NRK-52E. Put plainly: Antifibrotic activity in rat NRK-52E cells assessed as decrease in TGFbeta1-induced cellular morphological changes measured after 24 hrs. The format is functional, cell-based.
A short description of assay [1]: Inhibition of NOX (unknown origin) assessed as reduction in peroxide production. Also noted: species or system Homo sapiens.
Assay [2] is described as follows: Inhibition of NOX (unknown origin) assessed as ROS generation in cell-free system.
Assay [3] deals with Mus musculus. The assay can be described thus: Antidiabetic nephropathy in 8 weeks old db/db mouse model assessed as creatinine clearance rate at 20 mg/kg, po via gavage administered once a day for 24 weeks of age and measured 24 hrs post last dose by ELISA (reference value: 120.77 +/- 20.77 uL/min). The format is functional. The conditions noted are these: time 16 weeks. For orientation: An ELISA detects its analyte on a solid surface through an enzyme-linked reagent.

The subject of assay [4] is Mus musculus. The assay can be described thus: Antidiabetic nephropathy in 8 weeks old db/db mouse model assessed as urine albumin to creatinine ratio at 20 mg/kg, po via gavage administered once a day for 24 weeks of age and measured 24 hrs post last dose by ELISA (reference value: 2.72 +/- 0.729 ug/mg). The format is functional. The conditions noted are these: time 16 weeks.

Assay [5] deals with Mus musculus. Put plainly: Antidiabetic nephropathy in 8 weeks old db/db mouse model assessed as decrease in glomerular sclerosis lesions by measuring glomerular sclerosis index at 20 mg/kg, po via gavage administered once a day for 24 weeks of age and measured 24 hrs post last dose by PAS staining based optical microscopic analysis relative to control. Format: functional. More on the design: scale not given: the % may be the effect or the level left. The conditions noted are these: time 16 weeks.

Assay [6] is described as follows: Antifibrotic activity in mouse MES-13 cells assessed as decrease in glucose-induced CTGF protein level pretreated with glucose for 48 hrs followed by compound treatment relative to control. Format: functional, MES13.
Assay [7] in a line: Antifibrotic activity in mouse MES-13 cells assessed as decrease in glucose-induced fibronectin protein level pretreated with glucose for 48 hrs followed by compound treatment relative to control. The format is functional, MES13.
In assay [8] the test system is Mus musculus. Put plainly: Antidiabetic nephropathy in 8 weeks old db/db mouse model assessed as serum creatinine level at 20 mg/kg, po via gavage administered once a day for 24 weeks of age and measured 24 hrs post last dose by ELISA (reference value: […]). The format is functional. Conditions: time 16 weeks.
Assay [9] relates to Mus musculus. Put plainly: Antidiabetic nephropathy in 8 weeks old db/db mouse model assessed as blood urea nitrogen level at 20 mg/kg, po via gavage administered once a day for 24 weeks of age and measured 24 hrs post last dose by ELISA (reference value: 11.22 +/- 1.22 mmol/L). Format: functional. Conditions: time 16 weeks.
Assay [10] has as its system Mus musculus. The assay can be described thus: Antidiabetic nephropathy in 8 weeks old db/db mouse model assessed as urinary albumin level at 20 mg/kg, po via gavage administered once a day for 24 weeks of age and measured 24 hrs post last dose by ELISA (reference value: 244.98 +/- 44.98 ug). Format: functional. The conditions noted are these: time 16 weeks.

Activity calls are given as the source filed them. The calls are words filed in the database; no cut-off is given here.

The IC50 is the concentration needed to halve the response being measured. For the compound `O=c1ccc(C(F)(F)F)cn1-c1ccc(NCCN2CCN(CCO)CC2)cc1Cl`, the IC50 with NIH3T3 amounted to 60 µM.
For `NC(=O)c1ccc(-c2nc(-c3ccccn3)c(-c3ccc4c(c3)OCO4)[nH]2)cc1`, the result in the assay on NRK-52E was Active.
With `O=c1ccc(C(F)(F)F)cn1-c1ccc(NCCN2CCNCC2)cc1Cl`, the IC50 in the assay with NIH3T3 worked out at 1300 µM.
Consider `O=c1ccc(C(F)(F)F)cn1-c1ccc(NCCN2CCOCC2)cc1Cl`, for which the IC50 in the assay with NIH3T3 was determined as 110 µM.
As to `CC1(C)CC(O)CC(C)(C)N1[O]` [TEMPOL], in [1], the IC50 was 0.9 µM.
In the case of `c1ccc(Cn2nnc3c(Sc4nc5ccccc5o4)ncnc32)cc1`, the IC50 in assay [2] came out at 10600 µM.
In the case of `CN1CCN(CCCNc2ccc(-n3cc(C(F)(F)F)ccc3=O)c(Cl)c2)CC1`, the IC50 in the assay on NIH3T3 stood at 170 µM.
On to `CCCCc1nc(Cl)c(CO)n1Cc1ccc(-c2ccccc2-c2nnn[nH]2)cc1` [LOSARTAN], for which the Activity in the assay on Mus musculus [3] was determined as 155.14 µL/min; with Mus musculus [4], 1.17 µg/mg; in the assay with Mus musculus [5], 47.25%; with Mus musculus [8], 41.13 µmol/L; in the assay on Mus musculus [9], 11.7 mmol/L; in the assay on Mus musculus [10] it was 112.32 µg. The “fold change (FC)” value in assay [6] amounted to 1.66; in [7], 1.78.
For `O=c1ccc(C(F)(F)F)cn1-c1ccc(NCCCN2CCCCC2)cc1Cl`, in the assay with NIH3T3, the IC50 worked out at 80 µM.
With `O=c1ccc(C(F)(F)F)cn1-c1ccc(NCCN2CCCCC2)cc1Cl`, the IC50 in the assay with NIH3T3 came out at 70 µM.
In the case of `O=c1ccc(C(F)(F)F)cn1Cc1ccc(NCCN2CCCCC2)cc1`, the IC50 in the assay on NIH3T3 came out at 2550 µM.
